In patent publication US4487924A, “2'-N-β-Lysyl) aminoglycosides” (Kowa Company, Ltd., priority 1982, dated 1984):
≈ marks a conversion by molar mass, not a printed value. Where two headings read alike, the source gives them in different places.

How the values were obtained:
Assay in all cases: Antibiotic activity (MIC), Table 1
Type in all cases: cell-based
[1] = system: P. aeruginosa RST-1 (AAC(3)-III)
P. cepacia 11D 1340 = system: P. cepacia 11D 1340
[2] = system: P. inconstans GN1554 (AAC(2'))
E. cloacae IID 977 = system: E. cloacae IID 977
S. marcescens NHL = system: S. marcescens NHL
E. coli JR 88 (AAC(3)-I) = system: E. coli JR 88 (AAC(3)-I)
P. aeruginosa NCTC 10490 = system: P. aeruginosa NCTC 10490
P. vulgaris IID 874 = system: P. vulgaris IID 874
[3] = system: P. aeruginosa TI 13 (APH(3')-I)
P. maltophilia IID 1275 = system: P. maltophilia IID 1275
[4] = system: K. pneumoniae 4687 (AAD(2"))
[5] = system: P. aeruginosa 99 (AAC(3)-I)
P. putida IID 5121 = system: P. putida IID 5121
E. coli ML 1410 = system: E. coli ML 1410
E. coli R176 (AAC(3)-II) = system: E. coli R176 (AAC(3)-II)
B. subtilis ATCC 6633 = system: B. subtilis ATCC 6633
[6] = system: P. aerugionosa TK-157 (APH(3')-II)
S. faecalis Imanari = system: S. faecalis Imanari
P. inconstans 93 = system: P. inconstans 93
S. aureus 209P JC-1 = system: S. aureus 209P JC-1
K. pneumoniae PCI 602 = system: K. pneumoniae PCI 602
E. coli NIHJ JC-2 = system: E. coli NIHJ JC-2
[7] = system: P. aeruginosa GN315 (AAC(6')-IV)
[8] = system: E. coli ML 1410 R81 (APH(3')-I)
[9] = system: E. coli ML 1410 R102 (AAD(2"))
[10] = system: E. coli ML 1410 R83 (APH(3')-II)
[11] = system: E. coli ML 1410 R82 (AAD(3"))
[12] = Pseudomonas aeruginosa, read-out: MIC
[13] = Burkholderia cepacia, 11D1340, read-out: MIC
[14] = Providencia alcalifaciens, GN1554, P. inconstans GN1554 (AAC(2')), read-out: MIC
[15] = Enterobacter cloacae, IID977, E. cloacae IID 977, read-out: MIC
[16] = Serratia marcescens, read-out: MIC
[17] = Escherichia coli, read-out: MIC
[18] = Pseudomonas aeruginosa, NCTC10490, P. aeruginosa NCTC 10490, read-out: MIC
[19] = Proteus vulgaris, IID874, P. vulgaris IID 874, read-out: MIC
[20] = Stenotrophomonas maltophilia, IID1275, P. maltophilia IID 1275, read-out: MIC
[21] = Klebsiella pneumoniae, read-out: MIC
[22] = Pseudomonas putida, IID5121, P. putida IID 5121, read-out: MIC
[23] = Escherichia coli, ML1410, E. coli ML 1410, read-out: MIC
[24] = Bacillus subtilis, ATCC6633, B. subtilis ATCC 6633, read-out: MIC
[25] = Enterococcus faecalis, read-out: MIC
[26] = Providencia alcalifaciens, 93, P. inconstans 93, read-out: MIC
[27] = Staphylococcus aureus, 209P, read-out: MIC
[28] = Klebsiella pneumoniae, PCI602, K. pneumoniae PCI 602, read-out: MIC
[29] = Escherichia coli, NIHJJC2, E. coli NIHJ JC-2, read-out: MIC
[30] = Pseudomonas aeruginosa, GN315, P. aeruginosa GN315 (AAC(6')-IV), read-out: MIC

Compound CNCC1CCC(NC(=O)C[C@@H](N)CCCN)C(OC2C(N)CC(OC)C(NC)C2O)O1 (stereo partly drawn) [2'-N-β-Lysyl KA-7038VI, 2'-N-(L-β-lysyl)-KA-7038VI] has an MIC [1, 12] of over 100 µg/mL, an MIC (P. cepacia 11D 1340; [13]) of over 100 µg/mL and an MIC [2, 14] of 0.78 µg/mL (≈ 1.69 µM). It also gave an MIC (E. cloacae IID 977; [15]) of 6.25 µg/mL (≈ 13.6 µM), an MIC (S. marcescens NHL; [16]) of 0.78 µg/mL (≈ 1.69 µM) and an MIC (E. coli JR 88 (AAC(3)-I); [17]) of 3.13 µg/mL (≈ 6.8 µM). The MIC (P. aeruginosa NCTC 10490; [18]) was 12.5 µg/mL (≈ 27.1 µM), the MIC (P. vulgaris IID 874; [19]) was 25 µg/mL (≈ 54.3 µM) and the MIC ([3]; Pseudomonas aeruginosa) was 25 µg/mL (≈ 54.3 µM). The MIC (P. maltophilia IID 1275; [20]) was 1.56 µg/mL (≈ 3.39 µM), the MIC [4, 21] was 3.13 µg/mL (≈ 6.8 µM) and the MIC [5, 12] was over 100 µg/mL. It also gave an MIC (P. putida IID 5121; [22]) of 12.5 µg/mL (≈ 27.1 µM), an MIC (E. coli ML 1410; [23]) of 1.56 µg/mL (≈ 3.39 µM) and an MIC (E. coli R176 (AAC(3)-II); [17]) of 1.56 µg/mL (≈ 3.39 µM). For the same compound, the MIC (B. subtilis ATCC 6633; [24]) was 3.13 µg/mL (≈ 6.8 µM), the MIC ([6]; read-out: MIC) was 25 µg/mL (≈ 54.3 µM) and the MIC (S. faecalis Imanari; [25]) was 1.56 µg/mL (≈ 3.39 µM). The MIC (P. inconstans 93; [26]) was 0.78 µg/mL (≈ 1.69 µM), the MIC (S. aureus 209P JC-1; [27]) was 0.78 µg/mL (≈ 1.69 µM) and the MIC (K. pneumoniae PCI 602; [28]) was 0.78 µg/mL (≈ 1.69 µM). It also gave an MIC (E. coli NIHJ JC-2; [29]) of 1.56 µg/mL (≈ 3.39 µM) and an MIC [7, 30] of 100 µg/mL (≈ 217 µM).

CNC1C(OC)CC(N)C(OC2OC(C(C)N)CCC2N)C1O (centres unmarked) [KA-6606II, reference compound] showed an MIC [1] of over 100 µg/mL, an MIC (P. cepacia 11D 1340) of over 100 µg/mL and an MIC ([2]; P. inconstans GN1554 (AAC(2'))) of over 100 µg/mL. It also gave an MIC (E. cloacae IID 977; E. cloacae IID 977) of over 100 µg/mL, an MIC (S. marcescens NHL) of 100 µg/mL (≈ 301 µM) and an MIC (E. coli JR 88 (AAC(3)-I)) of over 100 µg/mL. It also gave an MIC [8] of over 100 µg/mL, an MIC (P. aeruginosa NCTC 10490; P. aeruginosa NCTC 10490) of over 100 µg/mL and an MIC (P. vulgaris IID 874; P. vulgaris IID 874) of 100 µg/mL (≈ 301 µM). The MIC [3] was over 100 µg/mL, the MIC [9] was over 100 µg/mL and the MIC (P. maltophilia IID 1275; P. maltophilia IID 1275) was over 100 µg/mL. It also gave an MIC [4] of over 100 µg/mL, an MIC [5] of over 100 µg/mL and an MIC (P. putida IID 5121; P. putida IID 5121) of over 100 µg/mL. The MIC (E. coli ML 1410; E. coli ML 1410) was over 100 µg/mL, the MIC [10] was over 100 µg/mL and the MIC (E. coli R176 (AAC(3)-II)) was over 100 µg/mL. For the same compound, the MIC (B. subtilis ATCC 6633; B. subtilis ATCC 6633) was 6.25 µg/mL (≈ 18.8 µM), the MIC [6] was over 100 µg/mL and the MIC (S. faecalis Imanari) was 100 µg/mL (≈ 301 µM). For the same compound, the MIC (P. inconstans 93; P. inconstans 93) was over 100 µg/mL, the MIC (S. aureus 209P JC-1) was 25 µg/mL (≈ 75.2 µM) and the MIC [11] was over 100 µg/mL. For the same compound, the MIC (K. pneumoniae PCI 602; K. pneumoniae PCI 602) was over 100 µg/mL, the MIC (E. coli NIHJ JC-2; E. coli NIHJ JC-2) was 50 µg/mL (≈ 150 µM) and the MIC ([7]; P. aeruginosa GN315 (AAC(6')-IV)) was over 100 µg/mL.

Work on CNC1C(OC)CC(N)C(OC2OC(C(C)N)CCC2N)C1O (centres unmarked) [KA-6606VIII, reference compound] yielded an MIC [1, 12] of 100 µg/mL (≈ 301 µM), an MIC (P. cepacia 11D 1340; [13]) of over 100 µg/mL and an MIC ([2]; P. inconstans GN1554 (AAC(2'))) of 1.56 µg/mL (≈ 4.69 µM). The MIC (E. cloacae IID 977; E. cloacae IID 977) was 12.5 µg/mL (≈ 37.6 µM), the MIC (S. marcescens NHL) was 1.56 µg/mL (≈ 4.69 µM) and the MIC (E. coli JR 88 (AAC(3)-I); [17]) was 50 µg/mL (≈ 150 µM). It also gave an MIC (P. aeruginosa NCTC 10490; P. aeruginosa NCTC 10490) of 12.5 µg/mL (≈ 37.6 µM), an MIC (P. vulgaris IID 874; P. vulgaris IID 874) of 12.5 µg/mL (≈ 37.6 µM) and an MIC [3] of 25 µg/mL (≈ 75.2 µM). For the same compound, the MIC [9] was 0.78 µg/mL (≈ 2.35 µM), the MIC (P. maltophilia IID 1275; P. maltophilia IID 1275) was 1.56 µg/mL (≈ 4.69 µM) and the MIC [4] was 6.25 µg/mL (≈ 18.8 µM). For the same compound, the MIC [5, 12] was over 100 µg/mL, the MIC (P. putida IID 5121; P. putida IID 5121) was 12.5 µg/mL (≈ 37.6 µM) and the MIC (E. coli ML 1410; E. coli ML 1410) was 3.13 µg/mL (≈ 9.42 µM). The MIC (E. coli R176 (AAC(3)-II)) was 3.13 µg/mL (≈ 9.42 µM), the MIC (B. subtilis ATCC 6633; [24]) was 3.13 µg/mL (≈ 9.42 µM) and the MIC [6] was 25 µg/mL (≈ 75.2 µM). It also gave an MIC (S. faecalis Imanari) of 3.13 µg/mL (≈ 9.42 µM), an MIC (P. inconstans 93; P. inconstans 93) of 1.56 µg/mL (≈ 4.69 µM) and an MIC (S. aureus 209P JC-1) of 0.78 µg/mL (≈ 2.35 µM). For the same compound, the MIC (K. pneumoniae PCI 602; K. pneumoniae PCI 602) was 0.78 µg/mL (≈ 2.35 µM), the MIC (E. coli NIHJ JC-2; E. coli NIHJ JC-2) was 3.13 µg/mL (≈ 9.42 µM) and the MIC [7, 30] was 100 µg/mL (≈ 301 µM).

For CNCC1CCC(N)C(OC2C(N)CC(OC)C(NC)C2O)O1 (centres unmarked) [KA-7038VI, reference compound], the MIC [1, 12] was over 100 µg/mL, the MIC (P. cepacia 11D 1340; [13]) was over 100 µg/mL and the MIC [2, 14] was over 100 µg/mL. For the same compound, the MIC (E. cloacae IID 977; [15]) was over 100 µg/mL, the MIC (S. marcescens NHL; [16]) was over 100 µg/mL and the MIC (E. coli JR 88 (AAC(3)-I); [17]) was over 100 µg/mL. It also gave an MIC ([8]; Escherichia coli) of over 100 µg/mL, an MIC (P. aeruginosa NCTC 10490; [18]) of over 100 µg/mL and an MIC (P. vulgaris IID 874; [19]) of 50 µg/mL (≈ 150 µM). For the same compound, the MIC ([3]; Pseudomonas aeruginosa) was 100 µg/mL (≈ 301 µM), the MIC ([9]; Escherichia coli) was 100 µg/mL (≈ 301 µM) and the MIC (P. maltophilia IID 1275; [20]) was over 100 µg/mL. For the same compound, the MIC [4, 21] was over 100 µg/mL, the MIC [5, 12] was over 100 µg/mL and the MIC (P. putida IID 5121; [22]) was over 100 µg/mL. It also gave an MIC (E. coli ML 1410; [23]) of over 100 µg/mL, an MIC ([10]; Escherichia coli) of over 100 µg/mL and an MIC (E. coli R176 (AAC(3)-II); [17]) of over 100 µg/mL. It also gave an MIC (B. subtilis ATCC 6633; [24]) of 6.25 µg/mL (≈ 18.8 µM), an MIC ([6]; read-out: MIC) of over 100 µg/mL and an MIC (S. faecalis Imanari; [25]) of 100 µg/mL (≈ 301 µM). It also gave an MIC (P. inconstans 93; [26]) of over 100 µg/mL, an MIC (S. aureus 209P JC-1; [27]) of 25 µg/mL (≈ 75.2 µM) and an MIC ([11]; Escherichia coli) of over 100 µg/mL. It also gave an MIC (K. pneumoniae PCI 602; [28]) of 100 µg/mL (≈ 301 µM), an MIC (E. coli NIHJ JC-2; [29]) of 50 µg/mL (≈ 150 µM) and an MIC [7, 30] of over 100 µg/mL.
